Values after ≈ are worked out from the molar mass of the structure shown. Where two headings read alike, the source gives them in different places.

The test system of test [1] is Mycobacterium smagmatis 607 ™. Put plainly: MIC, broth dilution method, dark condition. The format is cell-based, Mycobacterium smegmatis. Particulars: for MIC: read-out: MIC (μg/mL) against M. smegmatis 607 ™ (wild-type). On the technique in general: In broth dilution the organism is exposed to a series of concentrations in liquid medium.
Test [2] relates to M. smegmatis 607 ™ (RB mutant). The test is classed as cell-based, Mycobacterium smegmatis. Conditions: dark condition; triplicated.
In test [3] the test system is biofilms of S. aureus 6508™. Put plainly: Biofilm eradication assay. The format is cell-based, Staphylococcus aureus. Particulars: linezolid at 600 μg/mL. Here is the method:
62:394-399 (2013)], and was used as a control.
Linezolid was applied as a positive control at very high concentration of 600 μg/mL (>100×MIC for the planktonic cells) in biofilm assays reported by Kurosu et al., Molecules 27:322 (2022).

`NC[C@H]1O[C@@H](O[C@H]([C@H]2O[C@@H](n3ccc(=O)[nH]c3=O)[C@H](O)[C@@H]2O)[C@H](NCCCC(=O)NCc2ccc(N3CCC(Oc4ccc(OC(F)(F)F)cc4)CC3)cc2)C(N)=O)[C@H](O)[C@@H]1O` [APPB, aminouridyl phenoxypiperidinylbenzyl butanamide]: the “MIC (μg/mL) against M. smegmatis 607 ™ (wild-type)” value in test [1] (dark condition, triplicated) stood at 0.20 µg/mL (≈ 0.227 µM). Also, in test [2], the “MIC (μg/mL) against M. smegmatis 607 ™ (RB mutant)” value is 0.20 µg/mL (≈ 0.227 µM). On to `NCC[C@H](O)C(=O)N[C@@H]1C[C@H](N)[C@@H](O[C@H]2O[C@H](CN)[C@@H](O)[C@H](O)[C@H]2O)[C@H](O)[C@H]1O[C@H]1O[C@H](CO)[C@@H](O)[C@H](N)[C@H]1O` [Amikacin], for which, in test [1] (dark condition, triplicated), the MIC amounted to 0.78 µg/mL (≈ 1.33 µM). In the case of `CCc1cc(C(N)=S)ccn1` [Ethionamide (ETH), Ethionamide], the MIC in test [1] was determined as 12.5 µg/mL (≈ 75.2 µM). As to `NNC(=O)c1ccncc1` [Isoniazid (INH), Isoniazid], the MIC in test [1] (dark condition, triplicated) was 1.56 µg/mL (≈ 11.4 µM). As to `CO[C@H]1/C=C/O[C@@]2(C)Oc3c(C)c(O)c4c(O)c(c(/C=N/N5CCN(C)CC5)c(O)c4c3C2=O)NC(=O)/C(C)=C\C=C\[C@H](C)[C@H](O)[C@@H](C)[C@@H](O)[C@@H](C)[C@H](OC(C)=O)[C@@H]1C` [Rifampicin], in test [1], the MIC turned out to be 1.56 µg/mL (≈ 1.9 µM). Take `CC(=O)NC[C@H]1CN(c2ccc(N3CCOCC3)c(F)c2)C(=O)O1` [linezolid, reference compound]: the “biofilm eradication efficacy of positive control compared with RB” value in test [3] is on record as “the same level of efficacy”. Regarding Capreomycin, the “MIC (μg/mL) against M. smegmatis 607 ™ (wild-type)” value in test [1] (dark condition, triplicated) came out at 3.13 µg/mL. In test [2], the “MIC (μg/mL) against M. smegmatis 607 ™ (RB mutant)” value turned out to be 3.13 µg/mL.

The record behind these values is patent US12661335B2, “Halogenated xanthene-containing topical anti-gram-positive bacterial ophthalmic composition and method” (Provectus Pharmatech, Inc., priority 2021, dated 2026).
